In US5393780A, “4-fluorobiphenyl derivatives” (priority 1993, dated 1995):

How the values were obtained:
biosynthesis of sterol = test: Determination of Inhibition of Sterol Synthesis (14C-acetic acid, liver, after oral dosing); format: in vivo, SD rat; conditions: 14C-acetic acid five hours later
Experimental: Determination of Inhibition of Sterol Synthesis
Representative compounds (0.3 mg/5 ml/kg) suspended in a 5% arabic gum solution were orally given to SD rate weighing 150 to 200 g.
Five hours later, ^14 C-acetic acid (100 μCi/kg) was intraperitoneally injected, and furthermore one hour later, liver was removed to determine the inhibitory activity of each of the compounds on the biosynthesis of sterol.

HMG-CoA Reductase [1] = target: T1, HMG-CoA Reductase (Rattus norvegicus, UniProt P51639); test: biochemical; conditions: read-out: HMG-CoA Reductase Inhibition %
T1 sequence (P51639 1-887): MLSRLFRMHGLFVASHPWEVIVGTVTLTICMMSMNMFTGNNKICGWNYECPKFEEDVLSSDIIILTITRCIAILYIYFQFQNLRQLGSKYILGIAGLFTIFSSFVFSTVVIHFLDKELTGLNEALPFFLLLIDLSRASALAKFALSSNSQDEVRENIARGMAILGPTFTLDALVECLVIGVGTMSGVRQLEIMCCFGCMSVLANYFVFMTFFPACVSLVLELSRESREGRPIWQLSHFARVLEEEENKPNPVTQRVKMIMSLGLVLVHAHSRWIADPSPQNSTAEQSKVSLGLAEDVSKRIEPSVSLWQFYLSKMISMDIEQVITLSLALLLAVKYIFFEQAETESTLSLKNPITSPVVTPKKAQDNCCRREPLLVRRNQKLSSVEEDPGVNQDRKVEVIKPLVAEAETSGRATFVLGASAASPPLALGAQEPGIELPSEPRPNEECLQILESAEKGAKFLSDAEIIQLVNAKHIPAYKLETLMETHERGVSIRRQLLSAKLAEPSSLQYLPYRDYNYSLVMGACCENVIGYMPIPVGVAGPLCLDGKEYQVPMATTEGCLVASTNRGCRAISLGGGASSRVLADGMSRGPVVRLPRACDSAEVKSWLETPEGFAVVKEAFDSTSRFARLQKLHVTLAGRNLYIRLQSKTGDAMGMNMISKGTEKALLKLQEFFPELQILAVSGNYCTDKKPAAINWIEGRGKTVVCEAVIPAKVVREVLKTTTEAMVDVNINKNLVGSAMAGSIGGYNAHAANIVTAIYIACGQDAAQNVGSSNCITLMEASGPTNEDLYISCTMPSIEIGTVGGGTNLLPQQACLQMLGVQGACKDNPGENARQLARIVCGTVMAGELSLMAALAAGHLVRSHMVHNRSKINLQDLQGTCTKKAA
Experimental: Determination of Inhibitory Activity on HMG-CoA Reductase
The inhibitory effect on HMG-CoA Reductase of each of representative examples of the 4-fluorobiphenyl derivatives prepared in the above-discussed examples was determined in accordance with the method described in Journal of Biological Chemistry (J. Biol. Chem.) Vol. 234, page 2835 (1959).

[2] = cited from earlier work
[3] = Determination of Partition Coefficient (n-octanol/phosphoric acid buffer pH 7.0); format: physicochemical; conditions: P=Co/Cw; for logD: n-octanol/phosphate buffer
Experimental: Determination of Partition Coefficient
The partition coefficient of each of representative compounds synthesized in the above-mentioned Examples was determined in accordance with the method by Hansh et al. (J. Am. Chem. Soc., 86, 5175 (1964)).
More specifically, the compound to be tested was dissolved in either an n-octanol solution which was saturated with a phosphoric acid buffer solution of pH 7.0 (Solution A) or a phosphoric acid buffer solution of pH 7.0 saturated with n-octanol (Solution B).
5 ml of the solution (Solution A or Solution B) in which the compound was dissolved and 5 ml of the solution (Solution B or Solution A) in which the compound was not dissolved were placed in a screw vial tube, and shaken for 30 minutes. This mixed solution was centrifuged for 15 minutes, and was then allowed to stand. The mixed solution was separated into two phases, that is, a water phase and a n-octanol phase.
The concentration of the compound in the water phase was determined by the UV method, and the concentration of the compound in the n-octanol phase was determined by deducting the concentration of the compound in the water phase from the concentration of the compound in the initially mixed solution (Solution A and Solution B).
The partition coefficient of the compound was calculated in accordance with the following formula:
Partition coefficient (P)=Co/Cw
wherein Co is the concentration of the compound in the n-octanol phase, and Cw is the concentration of the compound in the water phase.

[4] = referred to JAMA (Japanese Edition) October 1991 Supplement, pages 42-47; cited from earlier work
[5] = tested on: liver cells and non-liver cells; conditions: cited from earlier work
cells of smooth muscles = conditions: advantage over pravastatin; cited from earlier work
cholesterol in the blood = conditions: cited from earlier work
HMG-CoA Reductase [6] = target: T2, HMG-CoA Reductase (Homo sapiens, UniProt P04035); conditions: cited from earlier work
T2 sequence (P04035 1-888): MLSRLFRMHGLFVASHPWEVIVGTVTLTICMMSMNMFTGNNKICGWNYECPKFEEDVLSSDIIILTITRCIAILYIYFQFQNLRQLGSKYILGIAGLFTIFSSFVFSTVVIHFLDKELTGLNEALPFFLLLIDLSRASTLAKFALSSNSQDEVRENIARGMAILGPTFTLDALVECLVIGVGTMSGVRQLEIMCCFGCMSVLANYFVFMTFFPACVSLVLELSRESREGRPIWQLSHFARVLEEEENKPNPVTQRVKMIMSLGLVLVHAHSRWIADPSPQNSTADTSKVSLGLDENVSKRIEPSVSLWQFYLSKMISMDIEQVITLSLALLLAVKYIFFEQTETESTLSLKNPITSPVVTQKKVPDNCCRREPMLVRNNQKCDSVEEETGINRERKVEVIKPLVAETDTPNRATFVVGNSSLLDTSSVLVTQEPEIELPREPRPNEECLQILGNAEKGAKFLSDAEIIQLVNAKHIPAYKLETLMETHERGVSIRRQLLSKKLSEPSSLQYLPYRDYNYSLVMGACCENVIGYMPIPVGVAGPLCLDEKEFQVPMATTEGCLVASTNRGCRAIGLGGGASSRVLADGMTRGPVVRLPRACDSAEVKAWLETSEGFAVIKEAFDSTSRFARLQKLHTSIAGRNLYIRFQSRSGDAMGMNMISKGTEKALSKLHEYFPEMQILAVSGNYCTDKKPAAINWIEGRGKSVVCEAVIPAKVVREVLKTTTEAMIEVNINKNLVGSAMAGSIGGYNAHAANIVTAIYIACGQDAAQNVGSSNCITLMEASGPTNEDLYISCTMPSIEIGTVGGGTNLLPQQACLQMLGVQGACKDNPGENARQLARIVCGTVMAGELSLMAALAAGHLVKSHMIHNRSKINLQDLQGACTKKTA

[7] = literature reports; cited from earlier work

For `CC[C@H](C)C(=O)O[C@H]1C[C@H](O)C=C2C=C[C@H](C)[C@H](CC[C@@H](O)C[C@@H](O)CC(=O)O)[C@H]21` [Pravastatin], the “Sterol Synthesis Inhibition %” value (biosynthesis of sterol; Administered amount 1 mg/kg) is listed as 16%, the inhibition at 0.1 µM (HMG-CoA Reductase [1]) is listed as 88% and the water-solubility / lipid-solubility [2] is listed as “highly water-soluble”. The “Partition Coefficient” value [3] was 0.36, the logD [3] was -0.444 and the “Partition Coefficient (literature)” value [4] was 0.34. For the same compound, the “incorporation into liver / non-liver cells” value [5] was “not incorporated into histoblasts other than those of liver”.
`CC(C)c1cc(OCc2cccnc2)cc(-c2ccc(F)cc2)c1/C=C/C(O)CC(O)CC(=O)O` (centres unmarked) gave an inhibition at 0.1 µM (HMG-CoA Reductase [1]) of 95% and a logD [3] of 1.41.
In the case of `COCCOCCOc1cc(-c2ccc(F)cc2)c(/C=C/C(O)CC(O)CC(=O)O)c(C(C)C)c1` (centres unmarked), the logD [3] was 0.519.
For `CCC(C)(C)C(=O)O[C@H]1C[C@@H](C)C=C2C=C[C@H](C)[C@H](CC[C@@H]3C[C@@H](O)CC(=O)O3)[C@H]21` [Simvastatin], the “Sterol Synthesis Inhibition %” value (biosynthesis of sterol; Administered amount 0.3 mg/kg) is listed as 1%, the “Sterol Synthesis Inhibition %” value (biosynthesis of sterol; Administered amount 1 mg/kg) is listed as 41% and the “cytostatic function with respect to the cells of smooth muscles” value (cells of smooth muscles) is listed as “antiarteriosclerosis effect because of its cytostatic function with respect to the cells of smooth muscles”. For the same compound, the “Partition Coefficient” value ([3]; ring-opened type sodium salt) was 74, the cholesterol lowering effect (cholesterol in the blood) was “strong cholesterol lowering effect” and the “Partition Coefficient (literature)” value [4] was 75.8.
Compound `CC(C)c1cc(OCc2ccccn2)cc(-c2ccc(F)cc2)c1/C=C/C(O)CC(O)CC(=O)O` (centres unmarked) has an inhibition at 0.1 µM (HMG-CoA Reductase [1]) of 95% and a logD [3] of 1.43.
For `CC[C@H](C)C(=O)O[C@H]1CCC=C2C=C[C@H](C)[C@H](CC[C@@H]3C[C@@H](O)CC(=O)O3)[C@H]21` [ML-236B, Mevastatin], the “inhibitory effect on HMG-CoA reductase” value (HMG-CoA Reductase [6]) is listed as “competitive inhibitory effect on HMG-CoA reductase” and the cholesterol lowering effect (cholesterol in the blood) is listed as “capable of lowering the concentration of cholesterol in the blood”.
In the case of `CC[C@H](C)C(=O)O[C@H]1C[C@@H](C)C=C2C=C[C@H](C)[C@H](CC[C@@H]3C[C@@H](O)CC(=O)O3)[C@H]21` [lovastatin], the side effects [7] is given as “myositis and sleep disorder”, the water-solubility / lipid-solubility [2] is given as “highly lipid-soluble” and the cholesterol lowering effect (cholesterol in the blood) is given as “strong cholesterol lowering effect”. For the same compound, the “incorporation into liver / non-liver cells” value [5] was “transferred into both liver cells and non-liver cells”.
Work on `CC(C)c1cc(OCc2ccncc2)cc(-c2ccc(F)cc2)c1/C=C/C(O)CC(O)CC(=O)O` (centres unmarked) yielded an inhibition at 0.1 µM (HMG-CoA Reductase [1]) of 96% and a logD [3] of 1.48.
With `CC(C)c1cc(OCCO)cc(-c2ccc(F)cc2)c1/C=C/C(O)CC(O)CC(=O)[O-].[Na+]` (centres unmarked) the “Sterol Synthesis Inhibition %” value (biosynthesis of sterol; Administered amount 0.3 mg/kg) was 40%, the inhibition at 0.1 µM (HMG-CoA Reductase [1]) was 98% and the logD [3] was 0.114.
For `COCCOc1cc(-c2ccc(F)cc2)c(/C=C/C(O)CC(O)CC(=O)[O-])c(C(C)C)c1.[Na+]` (centres unmarked), the “Sterol Synthesis Inhibition %” value (biosynthesis of sterol; Administered amount 0.3 mg/kg) was 30%, the inhibition at 0.1 µM (HMG-CoA Reductase [1]) was 96% and the logD [3] was 0.716.
